How the values were obtained:
mSult5a1 = assay: FFA sulfoconjugation assay (N6-MF-A formation with adenosine as scavenger); type: biochemical, mouse
Method: (§1) Cytosolic fractions containing individual SULT forms were prepared from transgenic S. typhimurium TA1538. Table S1 in the Supplementary Material provides a summary of the thirty SULTs used in the current study together with references describing the cloning of the respective S. typhimurium TA1538 strains. The expressed SULT forms are denoted with the prefixes h, m and r for human, mouse and rat enzymes, respectively. Bacteria were grown in Luria Broth medium containing ampicillin (100 µg/ml) by stirring for 8 h at 200 revolutions/min at 37 °C. The bacterial suspensions were centrifuged at 5,000 g for 10 min. The sediments were washed twice with 25 ml of 10 mM potassium phosphate buffer (pH 7.4)/50 mM potassium chloride (KCP buffer) and centrifuged again. The pellets were taken up in 800 µl KCP buffer and sonicated thrice for 15 s with 30 s pauses in between. The soluble fraction was attained by centrifuging for 1 h at 100,000 g. The supernatants (in the following termed cytosolic preparations) were frozen at −80 °C. The protein concentrations were determined according to a bicinchoninic acid (BCA) assay protocol. The SULT concentrations in the cytosolic preparations were estimated after electrophoretic separation and immunodetection using inclusion bodies of different SULT forms as standards (Teubner et al. [2007]). The preparation of SULT inclusion bodies and the immunodetection of SULTs is described in the Supplementary Material, which also contains a representative immunoblot of different amounts of rSult1a1standard and a cytosolic preparation of S. typhimurium expressing rSult1a1 (Fig. S1).
(§2) The reaction mixtures were prepared as described for HMF. In addition, they contained 10 mM adenosine as a nucleophilic scavenger. Following incubation for 20 min at 37 °C, sulfoconjugation reactions were stopped by adding 100 µl cold methanol containing 175 fmol of [^15N5]N ^6-MF-A as the internal standard, mixed and centrifuged at 15,000 g for 10 min. The clear supernatants were subjected to UPLC-MS/MS analyses. Incubations were performed as quadruplicates. At higher concentrations, FFA reacts spontaneously with adenosine at low, but detectable, levels. To correct for the SULT-independent adduct formation, mixtures with SULT-deficient cytosols were carried along simultaneously in duplicate. Controls were subtracted from the experimental samples.
(§3) The ribonucleoside adduct N ^6-((furan-2-yl)methyl)-adenosine (N ^6-MF-A) was analyzed by isotope-dilution UPLC-MS/MS with the same system described above using a HSS T3 column (1.8 µm, 2.1 × 100 mm, Waters). Samples of 8 µl were eluted with 10 mM ammonium bicarbonate buffer, pH 8.0 (A) and methanol (B) using an 6-min gradient from 98 % solvent A to 15 % solvent A at 0.35 ml/min flow rate (Yin et al. [2013]). The electrospray interface of the mass spectrometer operated in the positive ion mode. The fragmentations of N ^6-MF-A into the aglycone cation [N ^6-((furan-2-yl)methyl)-adenine-H]^+ (m/z = 348.1 → 216.1), the cleavage of the 2-methylfuranyl cation (m/z = 348.1 → 81.0) and the release of [N ^6-methyl-adenine-H]^+ (m/z = 348.1 → 148.0) were monitored together with the corresponding fragmentations of the isotope-labeled internal standard [^15N5]N ^6-MF-A for the formation of the aglycone (m/z = 353.1 → 221.1), the 2-methylfuran cation (m/z = 353.1 → 81.0) and ^15N5-labeled N ^6-methyl-adenine (m/z = 353.1 → 153.0). The N ^6-MF-A content of the incubation mixture was calculated from the ratio of peak areas resulting from the total ion current of all three MRM signals of the analyte. For the fragmentation of N ^6-MF-A ([^15N5]N ^6-MF-A), collision energies were 20, 25 and 35 eV for the transitions m/z = 348.1 → 216.1 (m/z = 353.1 → 221.1), m/z = 348.1 → 148.0 (m/z = 353.1 → 153.0) and m/z = 348.1 → 81.0 (m/z = 353.1 → 81.0), respectively. […]

mSult2a3 = assay: as above; type: biochemical, mouse
Method: as §1, §2, §3

female B6C3F1 mice [1] = assay: Two-year bioassay of HMF, oral administration; type: in vivo; conditions: 70 kg human body weight, uptake 4–30 mg per person
female B6C3F1 mice [2] = test system: female B6C3F1 mice; parameters: method as in National Toxicology Program [2008]; conditions: oral 188 mg HMF/kg for 104 weeks, ref National Toxicology Program [2008]; cited from earlier work

SMILES | Rate of N6-MF-A formation (mSult5a1; 0.1 mM FFA) | Rate of N6-MF-A formation (mSult5a1; 1 mM FFA) | Rate of N6-MF-A formation (mSult5a1; 10 mM FFA) | Rate of N6-MF-A formation (mSult2a3; 0.1 mM FFA) | Rate of N6-MF-A formation (mSult2a3; 1 mM FFA) | Rate of N6-MF-A formation (mSult2a3; 10 mM FFA) | margin between carcinogenic dose (188 mg/kg) and human HMF uptake (female B6C3F1 mice [1]) | carcinogenic effect (female B6C3F1 mice [2])
OCc1ccco1 [FFA, furfuryl alcohol] | <18 fmol N ^6-MF-A/mg/min | <20 fmol N ^6-MF-A/mg/min | <44 fmol N ^6-MF-A/mg/min | <18 fmol N ^6-MF-A/mg/min | <20 fmol N ^6-MF-A/mg/min | <44 fmol N ^6-MF-A/mg/min |  | 
O=Cc1ccc(CO)o1 [HMF, 5-Hydroxymethylfurfural] |  |  |  |  |  |  | 440- to 3,300 fold | increased incidences of hepatocellular adenomas

From article PMC4710668, “Bioactivation of food genotoxicants 5-hydroxymethylfurfural and furfuryl alcohol by sulfotransferases from human, mouse and rat: a comparative study” (Archives of Toxicology, 2014)
